From patent US11666555B2, “RelA inhibitors for biofilm disruption” (DREXEL UNIVERSITY, priority 2017, dated 2023)

Assays:
Type in all cases: cell-based, Escherichia coli
[1] = tested on: E. coli C; assay: Bacterial growth curves in liquid culture (OD630); settings: for effect on bacterial growth (growth curves): liquid culture, 30, 20, 10 and 5 μg/mL, OD630, 18 h, FIG. 2
Procedure: The bacterial strain of Escherichia coli strain C was used as the model organism for initial screening. A Luria-Bertani (LB-Miller) medium was used as the full medium. Once the biofilms were grown, compounds S3-[…] and S3-G1B were tested for their ability to degrade and inhibit biofilm growth. […] This is likely due to the fact that the stringent response and RelA are not active when the cells are initially grown. Bacterial Growth-The effect of different compounds on bacterial growth was tested by adding compounds at specific concentrations to the bacterial culture (100× diluted overnight culture approx. 10^9 cells) in fresh LB medium. Two hundred microliters were aliquoted into a 96 well plate and placed into Biotek HT plate reader for 18 h at 37° C. Plates were shaken and the optical density (OD630) was measured every 15 min. Antibiotic Susceptibility Test-The antibiotic susceptibility was tested. For the liquid cultures, the minimum inhibitory concentrations (MICs) of the antimicrobial drugs were determined using 96 well plates and the broth dilution method. Suspensions were then incubated at 37° C. for 18 hours in the Biotek HT plate reader (see bacterial growth). For biofilm, the Biofilm Destruction Test discussed below was used with different antibiotic concentrations and the cell density was measured after 18 h. Bacterial concentration was calculated through optical density (OD630), and the lowest concentration causing 80% growth inhibition relative to the growth of the control was deemed to be the MIC. In order to test the effect of compounds on bacterial growth, liquid culture experiments were performed. The S3-[…] compound (hereinafter “compound A”) and S3-G1B compound (hereinafter “compound B”) were applied to the bacterial cultures at the concentrations of 30, 20, 10 and 5 μg/mL. The differences in bacterial growth curves in liquid cultures fortified with the test compounds were measured. The Escherichia coli strain C is sensitive to all types of antibiotics. To test the MIC of ampicillin, a standard growth curve experiment was run with different concentrations of antibiotics. […] Inoculum at 1000× dilution of overnight culture.

[2] = tested on: E. coli C biofilm formation; assay: Biofilm Inhibition Test (crystal violet, OD570/OD600); settings: for effect on biofilm formation (crystal violet): 20 μg/mL
Procedure: Biofilm Inhibition Test—The biofilm inhibition was analyzed. For biofilm formation on a polystyrene surface, flat-bottom 96-well microtiter plates (Corning Inc.) were used. The effect of different compounds on biofilm formation was tested by adding compounds at specific concentrations to the bacterial culture (100× diluted overnight culture approx. 10^9 cells) in fresh LB medium. Two hundred microliters were aliquoted into 96 well plate and placed for 24 or 48 h into 37° C. incubator. Cell density was measured (OD600) using a Multiscan Go plate reader (ThermoFisher), and 30 μL of Gram crystal violet (Remel-3 g CV, 50 mL isopropanol, 50 mL ethanol and 900 mL of purified water) was applied for staining for 1 h. Plates were washed with water and air dried, and crystal violet was solubilized with an ethanol-acetone (4:1) solution. The OD570 was determined from this solution, and the biofilm amount was calculated as the ratio of OD570 to OD600. In order to check the effect of small molecules on biofilm formation, a biofilm inhibition experiment was designed. Compounds A and B were tested at concentration 20 μg/mL. The Innate defense regulator peptide-1018 (IDR-1018) (10 μg/mL) and serine hydroxamate (1 μg/mL) were also included.

[3] = tested on: E. coli C biofilm; assay: Biofilm Destruction Test (biofilm persistence, crystal violet); settings: for effect on biofilm persistence / survival: two days biofilms, FIG. 6; for increase in biofilm persistence: 2 days old biofilm, 18 h, FIG. 7
Procedure: Biofilm Destruction Test—The biofilm destruction was determined. Biofilms were grown for 24 or 48 h as described above. After that time planktonic cells were removed, and biofilms were washed twice with 250 μL of sterile phosphate buffered saline (PBS) solution. Two hundred microliters of fresh LB medium with specific concentration of the tested compounds were dispensed into wells. After 18 h incubation at 37° C., the amount of biofilm was measured by CV staining as described above.
The effect of small molecules on biofilm persistence was tested. Two days biofilms were treated with compounds A and B as well as IDR-1018 and serine hydroxamate.
As described above, antibiotics affect bacterial cell survival in biofilms. Thus, the effect of antibiotic on biofilm persistence was tested. Ampicillin was applied on 2 days old biofilm and the amount of biofilm was analyzed after 18 h.

[4] = tested on: E. Coli biofilms; assay: Synergistic effect of compounds combined with ampicillin on biofilm; settings: in conjunction with ampicillin, FIG. 8
Procedure: The synergistic effect of compounds combined with antibiotics was tested. Biofilms were grown for 24, 48 or 72 h as described above. After that time planktonic cells were removed, and biofilms were washed twice with 250 μL of sterile phosphate buffered saline (PBS) solution. Two hundred microliters of fresh LB medium with specific concentration of the tested compounds and Ampicillin were dispensed into wells. After 18 h incubation at 37° C., the amount of biofilm was measured by CV staining as described above. For alamarBlue viability test, 4 μL of alamarBlue (Invitrogen) was added and plates were incubated in the Biotek HT plate reader at 37° C. for 4 h. Cell viability was measured as fluorescence at 530/590 nm (excitation/emission) versus compound concentration or initial cell density.
FIG. 8 highlights some of the data collected. […] As a positive control in these experiments IDR-1018 was utilized. IDR-1018 is a non-druggable antibiofilm peptide. IDR 1018 is a known biofilm disruptor that directly acts and degrades (p)ppGpp in cells (de la Fuente-Núñez 2014).

[5] = tested on: E. coli C cells in biofilm; assay: Antibiotic susceptibility of cells in biofilm (cell density after 18 h treatment); settings: 18 h treatment of 2-day biofilm
Procedure: Antibiotic Susceptibility Test—The antibiotic susceptibility was tested. For the liquid cultures, the minimum inhibitory concentrations (MICs) of the antimicrobial drugs were determined using 96 well plates and the broth dilution method. Suspensions were then incubated at 37° C. for 18 hours in the Biotek HT plate reader (see bacterial growth). For biofilm, the Biofilm Destruction Test discussed below was used with different antibiotic concentrations and the cell density was measured after 18 h. Bacterial concentration was calculated through optical density (OD630), and the lowest concentration causing 80% growth inhibition relative to the growth of the control was deemed to be the MIC. Biofilm Destruction Test—The biofilm destruction was determined. Biofilms were grown for 24 or 48 h as described above. After that time planktonic cells were removed, and biofilms were washed twice with 250 μL of sterile phosphate buffered saline (PBS) solution. Two hundred microliters of fresh LB medium with specific concentration of the tested compounds were dispensed into wells. After 18 h incubation at 37° C., the amount of biofilm was measured by CV staining as described above. As cells in the biofilm tend to be more resistant to antibiotics, similar ampicillin concentration was tested to check the effect of 18 h antibiotic treatment on 2-day biofilm growth. […] At 40 μg/mL, a decrease in cell growth was observed of 15%. Starting from 50 μg/mL the cell density was reduced from 53% to 5% (at 90 μg/mL) of the untreated control.

Row | Compound | effect on bacterial growth (growth curves) [1] | effect on the initial growth of biofilms [2] | effect on biofilm formation (crystal violet) ([2]; FIG. 5B) | effect on biofilm persistence / survival [3] | biofilm concentration compared to biofilms treated with just antibiotics [4] | biofilm degradation compared with positive control IDR-1018 [4] | further results
1 | O=C(N[C@H](C(=O)O)c1ccc(Cl)cc1)c1cc(-c2ccc(O)cc2)n[nH]1 [Compound S3-G1A, (4-chlorophenyl)([(3-(4-hydroxyphenyl)-1H-pyrazol-5-yl]carbonyl)amino)acetic acid] | Neither compound showed any effect | did not show any effect | slight increase | no significant effect | decreasing the biofilm concentration significantly | outperform IDR-1018 | effect on bacterial growth (growth curves) ([1]; listed as A): no effect
2 | CCCNc1ncc(-c2cc(-c3cc(C(=O)O)[nH]n3)nc(N)c2C#N)cn1 [Compound S3-G1B] | Neither compound showed any effect | did not show any effect | slight increase | no significant effect | decreasing the biofilm concentration significantly | outperform IDR-1018 | effect on bacterial growth (growth curves) ([1]; listed as B): no effect
3 | NC(CO)C(=O)NO (stereo not drawn) [Serine hydroxamate, serine hydroxamate, reference compound] |  |  |  |  |  |  | effect in biofilm inhibition experiment ([2]; 1 μg/mL, 24 h experiment): did not show any effect
4 | CC1(C)S[C@@H]2[C@H](NC(=O)[C@H](N)c3ccccc3)C(=O)N2[C@H]1C(=O)O [ampicillin] |  |  |  |  |  |  | effect on planktonic growth curve ([1]; low ampicillin concentrations, FIG. 3): bacteriostatic effect with a prolonged lag phase; decrease in cell growth ([5]; 40 μg/mL): 15%; cell density, % of the untreated control ([5]; 50 μg/mL): 53%; cell density, % of the untreated control ([5]; 90 μg/mL): 5%; increase in biofilm persistence ([3]; Amp 10 (10 μg/mL)): 1.7 fold; increase in biofilm persistence ([3]; Amp 70 (70 μg/mL)): 5.9 fold
5 | IDR-1018 [reference compound] |  |  |  | smaller effect on biofilm destruction than on biofilm inhibition |  |  | planktonic growth lower than the untreated control ([2]; 10 μg/mL, FIG. 5A): 63%; biofilm lower than the untreated control ([2]; 10 μg/mL, FIG. 5B): 45%
